We go through one compound from US20030055023A1, “Formulations containing etomidate and a sulfoalkyl ether cyclodextrin” (priority 2001, published 2003).

Converted amounts (≈) assume the structure as drawn.

A short description of this series: Solubility of etomidate. The series is classed as physicochemical. To be noted: aqueous buffer. An excerpt:
. […] . No. 4,289,783 to Mesens).
By “therapeutic agent/SAE-CD complex” is generally meant a clathrate or inclusion complex of a sulfoalkyl ether cyclodextrin derivative of the formula (1) and a therapeutic agent. By “complexed” is meant “being part of a clathrate or inclusion complex with”, i.e., a complexed therapeutic agent is part of a clathrate or inclusion complex with a sulfoalkyl ether cyclodextrin derivative. By “major portion” is meant at least about 50% by weight of the therapeutic compound. Thus, a formulation according to the present invention will contain a therapeutic agent of which more than about 50% by weight is complexed with an SAE-CD. In various embodiments, preferably greater than 60% by weight, more preferably greater than 75% by weight, even more preferably greater than 90% by weight, and most preferably greater than 95% by weight of the therapeutic agent will remain complexed with an SAE-CD while in the pharmaceutical formulation. The actual percent of drug that is complexed will vary according to the complexation equilibrium constant characterizing the complexation of a specific SAE- CD to a specific drug. […] . In this case the amount complexed is only 75%. Generally, the greater the percentage of drug that is complexed, the more effectively the SAE-CD will reduce pain on injection. […]

On to `CCOC(=O)c1cncn1[C@H](C)c1ccccc1` [Etomidate, (R)-(+)ethyl 1-(1-phenylethyl)-1H-imidazole-5-carboxylate], for which the solubility was around 450 µg/mL (≈ 1840 µM) (0.025 M phosphate buffer at pH 7.0) and 450 µg/mL (≈ 1840 µM) (25mM phosphate buffer, pH 7.4).

The term solubility denotes the dissolved amount per volume that the medium holds.
